{"source": "paper PMC9005681", "about": "“Use of AD Informer Set compounds to explore validity of novel targets in Alzheimer's disease pathology” (Alzheimer's & Dementia : Translational Research & Clinical …, 2022)", "assay_in_all_cases": "PDSP GPCR panel primary binding assays at 10 μM", "key": {"[1]": {"target": "T1, cloned human or rodent CNS receptors, channels, and transporters (PDSP panel) (Homo sapiens, UniProt P28566)", "T1 construct": "expressed in transfected cells", "T1 sequence (P28566 whole entry)": "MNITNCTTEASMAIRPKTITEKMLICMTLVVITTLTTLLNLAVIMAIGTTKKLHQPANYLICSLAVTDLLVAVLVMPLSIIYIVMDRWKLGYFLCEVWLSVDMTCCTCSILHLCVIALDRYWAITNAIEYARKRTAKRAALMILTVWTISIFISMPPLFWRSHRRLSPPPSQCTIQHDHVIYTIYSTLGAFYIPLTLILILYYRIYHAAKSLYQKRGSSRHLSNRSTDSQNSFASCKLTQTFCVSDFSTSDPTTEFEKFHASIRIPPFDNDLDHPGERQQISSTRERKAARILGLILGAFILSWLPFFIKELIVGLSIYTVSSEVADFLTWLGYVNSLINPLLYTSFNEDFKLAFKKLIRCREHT", "settings": "5-HT1E, primary assay", "procedure,_shortened": "(§1)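 Primary screen: 10 μM, quadruplicate, displacement of radio-labeled standard ligand. Hit cut-off >50% mean displacement → secondary 11-point dose-response, triplicate. H3, PBR, GABAA excluded from follow-up.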"}, "[2]": {"tested_on": "cloned human or rodent CNS receptors, channels, and transporters (PDSP panel)", "settings": "primary assay; for Mean %: mean inhibition; for Inhibition 1: replicate 1; for Inhibition 2: replicate 2; for Inhibition 3: replicate 3; for Inhibition 4: replicate 4", "procedure,_shortened": "as §1"}, "[3]": {"target": "T2, cloned human or rodent CNS receptors, channels, and transporters (PDSP panel) (Homo sapiens, UniProt P35367)", "T2 construct": "expressed in transfected cells", "T2 sequence (P35367 whole entry)": "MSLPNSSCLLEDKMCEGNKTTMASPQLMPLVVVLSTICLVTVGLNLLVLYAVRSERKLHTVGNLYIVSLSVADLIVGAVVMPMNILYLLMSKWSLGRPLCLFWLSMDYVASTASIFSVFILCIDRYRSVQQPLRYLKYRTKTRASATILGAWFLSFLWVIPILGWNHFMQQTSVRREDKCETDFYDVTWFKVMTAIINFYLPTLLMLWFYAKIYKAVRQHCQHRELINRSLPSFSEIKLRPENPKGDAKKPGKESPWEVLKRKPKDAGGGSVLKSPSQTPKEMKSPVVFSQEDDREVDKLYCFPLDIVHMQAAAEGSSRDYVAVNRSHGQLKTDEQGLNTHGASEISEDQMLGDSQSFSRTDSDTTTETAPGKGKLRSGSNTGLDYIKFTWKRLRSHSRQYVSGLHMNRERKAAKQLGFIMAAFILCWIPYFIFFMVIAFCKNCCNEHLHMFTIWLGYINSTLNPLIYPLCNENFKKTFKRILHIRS", "settings": "H1, primary assay", "procedure,_shortened": "as §1"}, "[4]": {"target": "T3, cloned human or rodent CNS receptors, channels, and transporters (PDSP panel) (Homo sapiens, UniProt P35372)", "T3 construct": "expressed in transfected cells", "T3 sequence (P35372 whole entry)": "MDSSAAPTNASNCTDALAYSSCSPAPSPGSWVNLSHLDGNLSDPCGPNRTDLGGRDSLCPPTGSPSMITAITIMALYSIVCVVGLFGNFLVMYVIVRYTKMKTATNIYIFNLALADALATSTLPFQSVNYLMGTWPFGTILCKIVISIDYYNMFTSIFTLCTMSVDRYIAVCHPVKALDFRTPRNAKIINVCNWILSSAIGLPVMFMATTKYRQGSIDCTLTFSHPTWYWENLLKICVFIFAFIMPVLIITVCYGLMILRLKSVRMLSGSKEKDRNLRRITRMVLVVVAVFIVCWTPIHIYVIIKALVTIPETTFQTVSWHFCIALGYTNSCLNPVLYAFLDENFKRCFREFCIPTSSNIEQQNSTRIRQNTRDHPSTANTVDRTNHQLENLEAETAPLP", "settings": "MOR, primary assay", "procedure,_shortened": "as §1"}, "[5]": {"target": "T4, cloned human or rodent CNS receptors, channels, and transporters (PDSP panel) (Homo sapiens, UniProt P08912)", "T4 construct": "expressed in transfected cells", "T4 sequence (P08912 1-532)": "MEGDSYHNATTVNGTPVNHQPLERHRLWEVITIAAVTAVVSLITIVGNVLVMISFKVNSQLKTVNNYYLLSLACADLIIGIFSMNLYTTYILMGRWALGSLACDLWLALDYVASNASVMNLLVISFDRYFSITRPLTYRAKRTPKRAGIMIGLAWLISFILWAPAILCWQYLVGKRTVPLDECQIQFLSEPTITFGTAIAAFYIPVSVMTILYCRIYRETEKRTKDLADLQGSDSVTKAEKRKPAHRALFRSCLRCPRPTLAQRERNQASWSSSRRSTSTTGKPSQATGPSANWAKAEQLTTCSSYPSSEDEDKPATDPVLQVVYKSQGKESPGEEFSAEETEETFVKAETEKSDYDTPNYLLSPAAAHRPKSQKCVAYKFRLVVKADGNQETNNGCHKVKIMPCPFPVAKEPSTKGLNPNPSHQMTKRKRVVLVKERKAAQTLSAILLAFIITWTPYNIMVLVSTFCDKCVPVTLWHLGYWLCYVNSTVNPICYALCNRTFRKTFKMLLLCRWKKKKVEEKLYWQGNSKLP", "settings": "M5, primary assay", "procedure,_shortened": "as §1"}, "[6]": {"target": "T5, cloned human or rodent CNS receptors, channels, and transporters (PDSP panel) (Homo sapiens, UniProt P14416)", "T5 construct": "expressed in transfected cells", "T5 sequence (P14416 whole entry)": "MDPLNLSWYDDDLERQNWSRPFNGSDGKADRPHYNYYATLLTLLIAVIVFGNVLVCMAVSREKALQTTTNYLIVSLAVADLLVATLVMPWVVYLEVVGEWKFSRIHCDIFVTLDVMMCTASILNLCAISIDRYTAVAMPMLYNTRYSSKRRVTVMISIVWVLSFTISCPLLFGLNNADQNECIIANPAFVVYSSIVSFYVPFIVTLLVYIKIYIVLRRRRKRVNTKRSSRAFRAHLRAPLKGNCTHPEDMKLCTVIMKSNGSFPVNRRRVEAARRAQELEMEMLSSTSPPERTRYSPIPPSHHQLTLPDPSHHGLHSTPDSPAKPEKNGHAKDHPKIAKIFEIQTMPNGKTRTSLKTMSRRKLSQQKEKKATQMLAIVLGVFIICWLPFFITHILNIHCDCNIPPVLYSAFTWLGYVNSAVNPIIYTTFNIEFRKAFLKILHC", "settings": "D2, primary assay", "procedure,_shortened": "as §1"}, "[7]": {"target": "T6, cloned human or rodent CNS receptors, channels, and transporters (PDSP panel) (Homo sapiens, UniProt Q01959)", "T6 construct": "expressed in transfected cells", "T6 sequence (Q01959 whole entry)": "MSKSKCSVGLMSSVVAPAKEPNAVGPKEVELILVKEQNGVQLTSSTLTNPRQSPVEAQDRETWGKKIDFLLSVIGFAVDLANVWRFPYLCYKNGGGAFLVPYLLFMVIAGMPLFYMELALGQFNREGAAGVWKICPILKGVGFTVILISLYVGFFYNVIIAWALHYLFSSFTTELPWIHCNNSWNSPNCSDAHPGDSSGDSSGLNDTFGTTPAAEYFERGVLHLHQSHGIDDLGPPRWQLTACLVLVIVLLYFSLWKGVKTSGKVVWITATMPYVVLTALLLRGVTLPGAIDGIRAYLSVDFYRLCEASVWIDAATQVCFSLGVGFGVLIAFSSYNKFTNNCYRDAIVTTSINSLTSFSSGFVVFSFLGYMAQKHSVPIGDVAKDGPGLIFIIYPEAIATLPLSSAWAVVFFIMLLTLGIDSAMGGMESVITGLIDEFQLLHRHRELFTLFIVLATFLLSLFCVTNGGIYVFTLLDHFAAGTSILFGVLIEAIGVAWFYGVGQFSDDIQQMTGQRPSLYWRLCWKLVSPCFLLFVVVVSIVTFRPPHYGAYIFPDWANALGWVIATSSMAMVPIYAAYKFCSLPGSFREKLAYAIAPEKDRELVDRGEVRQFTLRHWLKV", "settings": "DAT, primary assay", "procedure,_shortened": "as §1"}, "[8]": {"target": "T7, cloned human or rodent CNS receptors, channels, and transporters (PDSP panel) (Homo sapiens, UniProt P20309)", "T7 construct": "expressed in transfected cells", "T7 sequence (P20309 whole entry)": "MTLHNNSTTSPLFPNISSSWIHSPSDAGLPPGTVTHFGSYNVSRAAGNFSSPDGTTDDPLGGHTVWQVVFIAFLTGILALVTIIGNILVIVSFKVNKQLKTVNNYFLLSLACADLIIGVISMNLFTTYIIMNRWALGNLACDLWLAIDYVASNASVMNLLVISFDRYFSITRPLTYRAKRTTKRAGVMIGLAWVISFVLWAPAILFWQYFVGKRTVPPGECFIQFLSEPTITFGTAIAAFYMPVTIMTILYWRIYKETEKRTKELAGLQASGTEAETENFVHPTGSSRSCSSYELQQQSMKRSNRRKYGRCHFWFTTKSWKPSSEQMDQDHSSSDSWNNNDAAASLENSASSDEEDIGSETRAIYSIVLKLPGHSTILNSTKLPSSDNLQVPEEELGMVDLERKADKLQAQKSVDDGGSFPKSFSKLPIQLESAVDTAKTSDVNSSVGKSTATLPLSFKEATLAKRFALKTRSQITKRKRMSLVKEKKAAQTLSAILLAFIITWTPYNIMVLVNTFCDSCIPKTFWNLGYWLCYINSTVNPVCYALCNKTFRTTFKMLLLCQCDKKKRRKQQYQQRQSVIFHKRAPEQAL", "settings": "M3, primary assay", "procedure,_shortened": "as §1"}}, "note": "Values joined by “and” are separate entries in the source; they are usually repeats but may differ in a detail not shown here. Equal entries are not always repeated.", "data": [{"smiles": "O=C(NC1CC1)C(=O)C(Cc1ccccc1)NC(=O)[C@H]1CCC(=O)N1Cc1ccccc1", "note": "(stereo partly shown) [UNC10302676A, ABT-957 (Alicapistat)]", "values": [{"measurement": "Mean %", "setting": "[1]; mean inhibition", "value": -4.73, "unit": "%"}, {"measurement": "Inhibition 1", "setting": "[1]; replicate 1", "value": 3.28, "unit": "%"}, {"measurement": "Inhibition 2", "setting": "[1]; replicate 2", "value": -0.45, "unit": "%"}, {"measurement": "Inhibition 3", "setting": "[1]; replicate 3", "value": -9.69, "unit": "%"}, {"measurement": "Inhibition 4", "setting": "[1]; replicate 4", "value": -12.07, "unit": "%"}, {"measurement": "Mean %", "setting": "[2]; Alpha1A", "value": -18.33, "unit": "%"}, {"measurement": "Inhibition 1", "setting": "[2]; Alpha1A", "value": -14.03, "unit": "%"}, {"measurement": "Inhibition 2", "setting": "[2]; Alpha1A", "value": -31.43, "unit": "%"}, {"measurement": "Inhibition 3", "setting": "[2]; Alpha1A", "value": -21.43, "unit": "%"}, {"measurement": "Inhibition 4", "setting": "[2]; Alpha1A", "value": -6.43, "unit": "%"}, {"measurement": "Mean %", "setting": "[2]; Alpha2A", "value": 5.04, "unit": "%"}, {"measurement": "Inhibition 1", "setting": "[2]; Alpha2A", "value": 2.51, "unit": "%"}, {"measurement": "Inhibition 2", "setting": "[2]; Alpha2A", "value": 2.44, "unit": "%"}, {"measurement": "Inhibition 3", "setting": "[2]; Alpha2A", "value": -2.65, "unit": "%"}, {"measurement": "Inhibition 4", "setting": "[2]; Alpha2A", "value": 17.86, "unit": "%"}, {"measurement": "Mean %", "setting": "[2]; Alpha2C", "value": -12.84, "unit": "%"}, {"measurement": "Inhibition 1", "setting": "[2]; Alpha2C", "value": -8.12, "unit": "%"}, {"measurement": "Inhibition 2", "setting": "[2]; Alpha2C", "value": -10.33, "unit": "%"}, {"measurement": "Inhibition 3", "setting": "[2]; Alpha2C", "value": -21.43, "unit": "%"}, {"measurement": "Inhibition 4", "setting": "[2]; Alpha2C", "value": -11.46, "unit": "%"}, {"measurement": "Mean %", "setting": "[2]; BZP Rat Brain Site", "value": 3.75, "unit": "%"}, {"measurement": "Inhibition 1", "setting": "[2]; BZP Rat Brain Site", "value": 19.6, "unit": "%"}, {"measurement": "Inhibition 2", "setting": "[2]; BZP Rat Brain Site", "value": -1.35, "unit": "%"}, {"measurement": "Inhibition 3", "setting": "[2]; BZP Rat Brain Site", "value": -4.1, "unit": "%"}, {"measurement": "Inhibition 4", "setting": "[2]; BZP Rat Brain Site", "value": 0.83, "unit": "%"}, {"measurement": "Mean %", "setting": "[2]; DOR", "value": -6.76, "unit": "%"}, {"measurement": "Inhibition 1", "setting": "[2]; DOR", "value": 2.73, "unit": "%"}, {"measurement": "Inhibition 2", "setting": "[2]; DOR", "value": -0.34, "unit": "%"}, {"measurement": "Inhibition 3", "setting": "[2]; DOR", "value": -9.56, "unit": "%"}, {"measurement": "Inhibition 4", "setting": "[2]; DOR", "value": -19.86, "unit": "%"}, {"measurement": "Inhibition 1", "setting": "[2]; GABAA", "value": "23.2% and -15.74%"}, {"measurement": "Inhibition 2", "setting": "[2]; GABAA", "value": "18.02% and -7.64%"}, {"measurement": "Inhibition 3", "setting": "[2]; GABAA", "value": "-2.68% and 0%"}, {"measurement": "Inhibition 4", "setting": "[2]; GABAA", "value": "4.71% and -21.69%"}, {"measurement": "Mean %", "setting": "[2]; H3", "value": -14.21, "unit": "%"}, {"measurement": "Inhibition 1", "setting": "[2]; H3", "value": -25.14, "unit": "%"}, {"measurement": "Inhibition 2", "setting": "[2]; H3", "value": -2.99, "unit": "%"}, {"measurement": "Inhibition 3", "setting": "[2]; H3", "value": -42.04, "unit": "%"}, {"measurement": "Inhibition 4", "setting": "[2]; H3", "value": 13.33, "unit": "%"}, {"measurement": "Mean %", "setting": "[2]; H4", "value": -11.52, "unit": "%"}, {"measurement": "Inhibition 1", "setting": "[2]; H4", "value": -3.78, "unit": "%"}, {"measurement": "Inhibition 2", "setting": "[2]; H4", "value": -13.62, "unit": "%"}, {"measurement": "Inhibition 3", "setting": "[2]; H4", "value": -23.94, "unit": "%"}, {"measurement": "Inhibition 4", "setting": "[2]; H4", "value": -4.74, "unit": "%"}, {"measurement": "Mean %", "setting": "[2]; Sigma 1", "value": -2.52, "unit": "%"}, {"measurement": "Mean %", "setting": "[2]; Sigma 2", "value": 7.31, "unit": "%"}, {"measurement": "Mean %", "setting": "[3]; mean inhibition", "value": 47.25, "unit": "%"}, {"measurement": "Inhibition 1", "setting": "[3]; replicate 1", "value": 60.11, "unit": "%"}, {"measurement": "Inhibition 2", "setting": "[3]; replicate 2", "value": 50.46, "unit": "%"}, {"measurement": "Inhibition 3", "setting": "[3]; replicate 3", "value": 44.57, "unit": "%"}, {"measurement": "Inhibition 4", "setting": "[3]; replicate 4", "value": 33.86, "unit": "%"}, {"measurement": "Mean %", "setting": "[4]; mean inhibition", "value": 7.04, "unit": "%"}, {"measurement": "Inhibition 1", "setting": "[4]; replicate 1", "value": 10.32, "unit": "%"}, {"measurement": "Inhibition 2", "setting": "[4]; replicate 2", "value": 13.58, "unit": "%"}, {"measurement": "Inhibition 3", "setting": "[4]; replicate 3", "value": -4.06, "unit": "%"}, {"measurement": "Inhibition 4", "setting": "[4]; replicate 4", "value": 8.3, "unit": "%"}, {"measurement": "Mean %", "setting": "[5]; mean inhibition", "value": -3.53, "unit": "%"}, {"measurement": "Inhibition 1", "setting": "[5]; replicate 1", "value": 2.18, "unit": "%"}, {"measurement": "Inhibition 2", "setting": "[5]; replicate 2", "value": -7.48, "unit": "%"}, {"measurement": "Inhibition 3", "setting": "[5]; replicate 3", "value": -4.57, "unit": "%"}, {"measurement": "Inhibition 4", "setting": "[5]; replicate 4", "value": -4.26, "unit": "%"}, {"measurement": "Mean %", "setting": "[6]; mean inhibition", "value": -21.21, "unit": "%"}, {"measurement": "Inhibition 1", "setting": "[6]; replicate 1", "value": -14.25, "unit": "%"}, {"measurement": "Inhibition 2", "setting": "[6]; replicate 2", "value": -31.51, "unit": "%"}, {"measurement": "Inhibition 3", "setting": "[6]; replicate 3", "value": -11.38, "unit": "%"}, {"measurement": "Inhibition 4", "setting": "[6]; replicate 4", "value": -27.71, "unit": "%"}, {"measurement": "Mean %", "setting": "[7]; mean inhibition", "value": 30.14, "unit": "%"}, {"measurement": "Inhibition 1", "setting": "[7]; replicate 1", "value": 25.06, "unit": "%"}, {"measurement": "Inhibition 2", "setting": "[7]; replicate 2", "value": 27.22, "unit": "%"}, {"measurement": "Inhibition 3", "setting": "[7]; replicate 3", "value": 40.62, "unit": "%"}, {"measurement": "Inhibition 4", "setting": "[7]; replicate 4", "value": 27.66, "unit": "%"}, {"measurement": "Mean %", "setting": "[8]; mean inhibition", "value": -7.1, "unit": "%"}, {"measurement": "Inhibition 1", "setting": "[8]; replicate 1", "value": 3.98, "unit": "%"}, {"measurement": "Inhibition 2", "setting": "[8]; replicate 2", "value": -16.69, "unit": "%"}, {"measurement": "Inhibition 3", "setting": "[8]; replicate 3", "value": -10.47, "unit": "%"}, {"measurement": "Inhibition 4", "setting": "[8]; replicate 4", "value": -5.21, "unit": "%"}]}]}
